Source: patent US9221746B2, “Homo- and hetero-polyamino-acid derivatives of fullerene C60, method for producing same, and pharmaceutical compositions based on said derivatives” (priority 2011, dated 2015)
Read-outs that look alike come from different tables or passages of the source.

Experiments:
[1] = system: breast adenocarcinoma Ca-755; format: in vivo, mice; conditions: for ILT, %: increase in lifetime compared to the control
Method: These studies were carried out at the Institute for Toxicology, St. Petersburg, 2006, according to “Guidelines for the Study of Antitumor Activity of Pharmacological Agents” (“Manual on Experimental (Preclinical) Study of New Pharmacological Agents,” Ministry of Public Health of the Russian Federation, Remedium, Moscow, 2000, pp. 319-325).
The L1210 leukemia, breast adenocarcinoma Ca-755, and Lewis carcinoma (3LL) tumor cell strain were purchased from the Petrov Research Institute for Oncology, the Ministry of Public Health of the Russian Federation (St. Petersburg).
C 57 BL/6J line male mice with transplanted Ca-755 cells. Mouse ages: 6 to 8 weeks; body weights: 19 to 25 g.
The antitumor effect was ascertained through the following parameters: • ascite accumulation as animal body weight gain; • the lifetime of animals; and • tumor growth. The larger dimension of the tumor (length) and the smaller dimension normal thereto (width) were measured. The tumor volume was calculated, and the inhibition of tumor growth was calculated by a formula. The ascertainment criterion was the day when each individual tumor reached a volume of 500 mm^3.

[2] = system: A/IIV-Moscow/01/2009 (H1N1)swl influenza virus; assay: Reduction of influenza virus reproduction in MDCK cell culture (ELISA); format: cell-based; conditions: for Percent reduction of influenza virus reproduction in MDCK cell culture relative to control, average values: average of the three experiments
Method: The agent was diluted with DMSO (5 mg substance+0.5 mL DMSO), followed by addition of 4.5 mL MEM cell cultural medium to obtain in this way a stock solution with a concentration of 1.0 […].
The antiviral activity was ascertained from the reduction of influenza virus reproduction in the MDCK cell culture, as recognized by ELISA.
For this purpose, MDCK cells were grown on 96-well plates to obtain a complete monolayer, washed from the growth medium, and added with substances in a twofold concentration in 100 mcL MEM medium. Infection with the virus in a working dose ranging from 100 to 1000 TCD50 was carried out in two protocols: 2 hours following the insertion of the substances and simultaneously. The plates were incubated in a thermostat filled with CO2 for 24 hours at 37° C. Following the incubation, the medium was removed and cells were fixed by 80% acetone in PBS for 15 minutes and then well dried, and ELISA was performed by consecutive adsorption of specific reagents, namely, monoclonal antibodies, conjugate, and substrate (orthophenylenediamine). The degree of reaction was monitored by measuring optical density at 492 nm on a Biokom spectrophotometer. Each virus dilution was studied in three replicas, for which an average optical density (OD) value was calculated. Percent inhibition was determined as the quotient of the difference between the experimental OD and the OD of the cell control, divided by the difference between the OD of the virus control and the OD of the cell control, multiplied by 100%. The data gained in this way were used to determine the minimal concentration of the agent causing the 50.0% inhibition of viral reproduction (MIC50).
The inhibition of A(H1N1) influenza virus replication was ascertained in three experiments with different multiplicities of infection.

Fullerene Poly(Aminocaproic Acid) of Formula C60(H3){NH(CH2)5COO—}3{NH3^+(CH2)5COOH}3 [Agent No. 1]
ILT, % ([1]; 100 mg/kg): 89.71%
ALT in days, M ± m ([1]; 100 mg/kg, listed as agent): 71.9 ± 2.58 days
average lifetime ([1]; 200 mg/kg): 73.4+0.92 days
percent increase in lifetime compared to the control ([1]; 200 mg/kg): 93.67%
ALT in days, M ± m ([1]; 250 mg/kg): 73.40 ± 0.92 days
ILT, % ([1]; 250 mg/kg): 93.67%
intoxication signatures ([1]; mouse, in vivo): No intoxication signatures were detected
Percent (%) reduction of influenza virus reproduction in MDCK cell culture relative to control ([2]; 6.25 mcg/mL, 2 h prior to infection, 1st value of cell (experiments with different multiplicities of infection)): 27.0%
Percent (%) reduction of influenza virus reproduction in MDCK cell culture relative to control ([2]; 6.25 mcg/mL, 2 h prior to infection, 2nd value of cell): 28.0%
Percent (%) reduction of influenza virus reproduction in MDCK cell culture relative to control ([2]; 6.25 mcg/mL, 2 h prior to infection, 3rd value of cell): 0%
Percent reduction of influenza virus reproduction in MDCK cell culture relative to control, average values ([2]; 6.25 mcg/mL, 2 h prior to infection): 18.0%
Percent (%) reduction of influenza virus reproduction in MDCK cell culture relative to control ([2]; 6.25 mcg/mL, simultaneously with infection, 1st value of cell): 18.0%
Percent (%) reduction of influenza virus reproduction in MDCK cell culture relative to control ([2]; 6.25 mcg/mL, simultaneously with infection, 2nd value of cell): 0%
Percent (%) reduction of influenza virus reproduction in MDCK cell culture relative to control ([2]; 6.25 mcg/mL, simultaneously with infection, 3rd value of cell): 0%
Percent reduction of influenza virus reproduction in MDCK cell culture relative to control, average values ([2]; 6.25 mcg/mL, simultaneously with infection): 6.0%
Percent (%) reduction of influenza virus reproduction in MDCK cell culture relative to control ([2]; 12.5 mcg/mL, 2 h prior to infection, 1st value of cell): 47.0%
Percent (%) reduction of influenza virus reproduction in MDCK cell culture relative to control ([2]; 12.5 mcg/mL, 2 h prior to infection, 2nd value of cell): 74.0%
Percent (%) reduction of influenza virus reproduction in MDCK cell culture relative to control ([2]; 12.5 mcg/mL, 2 h prior to infection, 3rd value of cell): 9.5%
Percent reduction of influenza virus reproduction in MDCK cell culture relative to control, average values ([2]; 12.5 mcg/mL, 2 h prior to infection): 44.0%
Percent (%) reduction of influenza virus reproduction in MDCK cell culture relative to control ([2]; 12.5 mcg/mL, simultaneously with infection, 1st value of cell): 39.0%
Percent (%) reduction of influenza virus reproduction in MDCK cell culture relative to control ([2]; 12.5 mcg/mL, simultaneously with infection, 2nd value of cell): 13.0%
Percent (%) reduction of influenza virus reproduction in MDCK cell culture relative to control ([2]; 12.5 mcg/mL, simultaneously with infection, 3rd value of cell): 0%
Percent reduction of influenza virus reproduction in MDCK cell culture relative to control, average values ([2]; 12.5 mcg/mL, simultaneously with infection): 26%
Percent (%) reduction of influenza virus reproduction in MDCK cell culture relative to control ([2]; 25.0 mcg/mL, 2 h prior to infection, 1st value of cell): 41.0%
Percent (%) reduction of influenza virus reproduction in MDCK cell culture relative to control ([2]; 25.0 mcg/mL, 2 h prior to infection, 2nd value of cell): 79.0%
Percent (%) reduction of influenza virus reproduction in MDCK cell culture relative to control ([2]; 25.0 mcg/mL, 2 h prior to infection, 3rd value of cell): 12%
Percent reduction of influenza virus reproduction in MDCK cell culture relative to control, average values ([2]; 25.0 mcg/mL, 2 h prior to infection): 44.0%
Percent (%) reduction of influenza virus reproduction in MDCK cell culture relative to control ([2]; 25.0 mcg/mL, simultaneously with infection, 1st value of cell): 40.0%
Percent (%) reduction of influenza virus reproduction in MDCK cell culture relative to control ([2]; 25.0 mcg/mL, simultaneously with infection, 2nd value of cell): 0%
Percent reduction of influenza virus reproduction in MDCK cell culture relative to control, average values ([2]; 25.0 mcg/mL, simultaneously with infection): 20.0%
Percent (%) reduction of influenza virus reproduction in MDCK cell culture relative to control ([2]; 50.0 mcg/mL, 2 h prior to infection, 1st value of cell): 28.0%
Percent (%) reduction of influenza virus reproduction in MDCK cell culture relative to control ([2]; 50.0 mcg/mL, 2 h prior to infection, 2nd value of cell): 72.0%
Percent (%) reduction of influenza virus reproduction in MDCK cell culture relative to control ([2]; 50.0 mcg/mL, 2 h prior to infection, 3rd value of cell): 31.0%
Percent reduction of influenza virus reproduction in MDCK cell culture relative to control, average values ([2]; 50.0 mcg/mL, 2 h prior to infection): 44.0%
Percent (%) reduction of influenza virus reproduction in MDCK cell culture relative to control ([2]; 50.0 mcg/mL, simultaneously with infection, 1st value of cell): 33.0%
Percent (%) reduction of influenza virus reproduction in MDCK cell culture relative to control ([2]; 50.0 mcg/mL, simultaneously with infection, 2nd value of cell): 10.0%
Percent reduction of influenza virus reproduction in MDCK cell culture relative to control, average values ([2]; 50.0 mcg/mL, simultaneously with infection): 22.0%
Percent (%) reduction of influenza virus reproduction in MDCK cell culture relative to control ([2]; 100.0 mcg/mL, 2 h prior to infection, 1st value of cell): 4.0%
Percent (%) reduction of influenza virus reproduction in MDCK cell culture relative to control ([2]; 100.0 mcg/mL, 2 h prior to infection, 2nd value of cell): 0%
Percent (%) reduction of influenza virus reproduction in MDCK cell culture relative to control ([2]; 100.0 mcg/mL, 2 h prior to infection, 3rd value of cell): 20.0%
Percent reduction of influenza virus reproduction in MDCK cell culture relative to control, average values ([2]; 100.0 mcg/mL, 2 h prior to infection): 8%
Percent (%) reduction of influenza virus reproduction in MDCK cell culture relative to control ([2]; 100.0 mcg/mL, simultaneously with infection, 1st value of cell): 29.0%
Percent (%) reduction of influenza virus reproduction in MDCK cell culture relative to control ([2]; 100.0 mcg/mL, simultaneously with infection, 2nd value of cell): 28.0%
Percent reduction of influenza virus reproduction in MDCK cell culture relative to control, average values ([2]; 100.0 mcg/mL, simultaneously with infection): 29.0%
reproduction inhibitory activity in the MDCK cell culture ([2]; different dilutions of the agent): high reproduction inhibitory activity
